Key:
[1] = system: rice recombinants (Kanto 239) having the target gene (AK065581) introduced therein; assay: Triketone type 4-HPPD inhibitor resistance assay on rice recombinants (T1/T2 seeds, HIS1) on agar medium; assay type: in vivo
Description: (§1) For transformation of rice, a BBC susceptible rice cultivar Kanto 239 was used, and the method described in “Taniguchi et al., Plant Cell Rep., 2010, vol. 29, iss. 11, pp. 1287 to 1295” was performed with some modification. Specifically, first, sterilized mature seeds were sown on an N6D medium. After culturing at 30° C. for 7 days, the seeds were infected with Agrobacterium, and co-cultured in an acetosyringone (AS)-containing N6 medium (2N6-AS medium) under a dark condition at 25° C. for 3 days. Thereafter, the infected tissues were cultured in a carbenicillin-containing N6D medium for 4 to 6 weeks (18 hours day length) in the presence of 40 mg/L hygromycin (Hyg), and Hyg-tolerant calli were re-differentiated.
Rice recombinants (T1 and T2 generations) were produced and subjected to a resistance assay with triketone type 4-HPPD inhibitors, that is, mesotrione, tefuryltrione, tembotrione, and NTBC, using commercially-available reagents at concentrations to be described later.
Furthermore, recombinants were prepared by introducing the target gene into the BBC susceptible rice cultivar “Kanto 239” that would be whitened by an agar medium containing 0.1 μM BBC, and T1 seeds or T2 seeds were obtained. These were seeded on an agar medium containing 2 μM BBC, and the growth state of the recombinants was examined. […] Moreover, the seeds were seeded on an agar medium containing 1 μM mesotrione, 2.5 μM tefuryltrione, 0.5 μM tembotrione, or 1 μM NTBC, and the growth state of the recombinants was examined. FIGS. 12 to 15 show the obtained results.

KHSL04 = assay: BBC susceptibility of Koshihikari/Habataki chromosome segment substitution lines (QTL analysis); assay type: in vivo, rice; conditions: KHSL04, short arm region of chromosome 2 substituted with Habataki type
Description: A Koshihikari/Habataki chromosome segment substitution line and Tachisugata//Tachisugata/Momiroman BC1F4 were tested. Specifically, Koshihikari/Habataki chromosome segment substitution lines (KHSL) were analyzed, in which a portion of chromosome fragments of a resistant cultivar Koshihikari serving as the genetic background was substituted with a chromosome of an indica type susceptible cultivar Habataki. Note that KHSL consists of 32 lines, and enables analysis on all of the whole 12 chromosomes of Habataki (as to KHSL, see Kazumasa Murata et al., “Development and evaluation of CSSLs carrying overlapping chromosome segments of rice cultivar Habataki in a genetic background of cultivar Koshihikari, ” Breeding Research, Mar. 27, 2009, vol. 11, supplement issue 1, p. 66). In addition, 94 BC1F4 lines obtained by one-time backcrossing of a resistant cultivar Tachisugata to a susceptible cultivar Momiroman were analyzed using 80 SSR markers (as to the SSR markers used, see “Development and mapping of 2240 new SSR markers for rice (Oryza sativa L.)”, DNA Res, 2002, vol. 9, iss. 6, pp. 199 to 207, and http://www.gramene.org/).
Accordingly, the QTL analysis was performed as described above on the Koshihikari/Habataki chromosome segment substitution lines (KHSL) using the BBC resistant rice cultivar “Koshihikari” and the susceptible rice cultivar “Habataki”.

[2] = system: Tos17-inserted lines of Nipponbare; assay: Linkage analysis of BBC susceptibility in Tos17-inserted lines; assay type: in vivo, rice; conditions: all progenies of six Tos17-inserted homozygous individuals
Source text: A retrotransposon Tos17 discovered in rice is activated by tissue culture, and its copies are transposed into a genome. It is known that when the transposition site is inside a gene, the gene is to be disrupted, causing a mutation (see Hirochika et al., Proc. Natl. Acad. Sci. USA, 1996, vol. 93, pp. 7783 to 7788). The present Examples utilized a rice population having accumulated mutations caused by tissue culture utilizing the phenomenon (mutant panel, database name: Tos17 mutant panel database (http://tos.nias.affrc.go.jp/ to miyao/pub/tos17/)). From the Tos17 mutant panel database, two lines were selected, in each of which Tos17 was inserted in a transcription site of a hypothetical gene of an iron/ascorbate oxidoreductase gene, which was strongly suspected of being associated with BBC susceptibility located at a gene locus specified by the QTL analysis. Then, self-fertilized seeds obtained by planting 15 individuals of each of these two lines were used to examine phenotype (BBC susceptibility) and genotype (Tos17 insertion).
Although the original cultivar “Nipponbare” of the Tos17-inserted lines is a BBC resistant cultivar, BBC susceptible individuals are derived from the lines having Tos17 inserted in the transcription site of the target gene. […]

[3] = system: tomato cultivar Micro-Tom; assay: Germination of tomato seeds on BBC agar medium; assay type: in vivo; conditions: Micro-Tom seeds germinated on agar medium containing 0.3 μM BBC, 25° C., approximately 2 weeks
Description: For transformation of tomatoes, a cultivar “Micro-Tom” was tested, and an Agrobacterium method was performed using vectors (35SHIS1pZK3, 35SHSL1pZK3) shown in FIGS. 5 and 7. Note that when seeds of the original cultivar Micro-Tom were germinated on an agar medium containing 0.3 μM benzobicyclon (BBC) using an incubator at 25° C., it was clearly observed approximately 2 weeks later that leaf parts thereof were whitened.

[4] = system: BBC resistant cultivar Nipponbare; assay: BBC whitening of resistant rice cultivar on agar medium; assay type: in vivo
[5] = system: Momiroman, Takanari, Kasalath; assay: BBC susceptibility level of susceptible rice cultivars; assay type: in vivo; conditions: Momiroman and Takanari in comparison with Kasalath
[6] = system: rice recombinants (Kanto 239) having the homologous gene (HSL1; AK241948) introduced therein; assay: BBC resistance assay on rice recombinants having the HSL1 gene (AK241948) on agar medium; assay type: in vivo; conditions: agar medium containing 0.12 μM BBC
Description: as §1
Specifically, recombinants were prepared by introducing the target gene into the BBC susceptible rice cultivar “Kanto 239” that would be whitened by an agar medium containing 0.1 μM BBC, and T1 seeds or T2 seeds were obtained. These were seeded on an agar medium containing 0.12 μM BBC, and the growth state of the recombinants was examined.

[7] = system: A. thaliana recombinants having the target gene introduced therein; assay: BBC resistance assay on A. thaliana recombinants (T2) having the target gene (AK065581, HIS1) introduced; assay type: in vivo, Arabidopsis thaliana; conditions: HIS1 recombinants T2 generation, agar medium containing 0.03 μM BBC
Description: For transformation of A. thaliana, ecotype “Columbia” was used, and a Floral dip method was performed (see Weigel and Glazebrook, Arabidopsis, a laboratory manual, Cold Spring Harbor Laboratory Press (2002) p131-132). Specifically, first, Agrobacterium was shake-cultured in a liquid medium (LB or YEB) containing an antibiotic. Approximately 16 hours later, 2 ml of the culture solution was added to a liquid medium (LB or YEB) containing an antibiotic, and further shake-cultured. Then, the culture solution obtained approximately 16 hours thereafter was centrifuged at 8000 rpm at 4° C. for 10 minutes. The supernatant liquid was discarded, and the resulting precipitate was suspended in 500 ml of a solution containing 5% sucrose. Subsequently, immediately before the transformation, a transformation reagent silwet (registered trademark: SILWET L-77, product number: BMS-SL7755, manufactured by Bio Medical Science Inc.) was added thereto at a final concentration of 0.025%. Then, into the Agrobacterium suspension thus obtained, Arabidopsis from which already flowered and pollinated buds had been removed was dipped for 30 to 120 seconds. Thereafter, the plants were left standing for 16 hours and then grown to obtain the seeds. […]

[8] = system: rice recombinants (Kanto 239) having the target gene (AK065581) introduced therein; assay: BBC resistance assay on rice recombinants (T0, HIS1) in composted soil; assay type: in vivo; conditions: HIS1 recombinants T0 generation, composted soil treated with BBC at 300 ga.i./ha
Description: as §1
Further, recombinants (TO generation) were prepared by introducing the target gene into the BBC susceptible rice cultivar “Kanto 239” that would be whitened by an agar medium containing 0.1 μM BBC, and the growth state of the recombinants was examined in composted soil treated with BBC at 300 ga.i./ha.

[9] = system: A. thaliana (ecotype Columbia); assay: BBC whitening of wildtype A. thaliana on agar medium; assay type: in vivo, Arabidopsis thaliana; conditions: agar medium containing 0.03 μM BBC
Description: Whether or not a protein encoded by a particular gene has an activity of providing a plant with resistance to a 4-HPPD inhibitor can be determined, for example, by introducing the gene into a plant, and assaying whether or not the plant thus produced is provided with the resistance as described in Examples later (see Example 2). Specifically, in a case of using A. thaliana (ecotype Columbia) that would be whitened by an agar medium containing 0.03 μM BBC, if a transformant produced by introducing the gene into A. thaliana can grow without being whitened in the presence of BBC at the above concentration, the protein encoded by the gene can be determined to have an activity of providing a plant with resistance to a 4-HPPD inhibitor. Moreover, in a case of using a BBC susceptible rice cultivar “Kanto 239” that would be whitened by an agar medium containing 0.1 μM BBC, if a transformant produced by introducing the gene into Kanto 239 can grow without being whitened in the presence of BBC at the above concentration, the protein encoded by the gene can be determined to have an activity of providing a plant with resistance to a 4-HPPD inhibitor.

[10] = system: BBC susceptible rice cultivar Kanto 239; assay: BBC whitening of wildtype susceptible rice on agar medium; assay type: in vivo; conditions: Kanto 239 wildtype, agar medium containing 0.1 μM BBC
Description: Whether or not a protein encoded by a particular gene has an activity of providing a plant with resistance to a 4-HPPD inhibitor can be determined, for example, by introducing the gene into a plant, and assaying whether or not the plant thus produced is provided with the resistance as described in Examples later (see Example 2). Specifically, in a case of using A. thaliana (ecotype Columbia) that would be whitened by an agar medium containing 0.03 μM BBC, if a transformant produced by introducing the gene into A. thaliana can grow without being whitened in the presence of BBC at the above concentration, the protein encoded by the gene can be determined to have an activity of providing a plant with resistance to a 4-HPPD inhibitor. Moreover, in a case of using a BBC susceptible rice cultivar “Kanto 239” that would be whitened by an agar medium containing 0.1 μM BBC, if a transformant produced by introducing the gene into Kanto 239 can grow without being whitened in the presence of BBC at the above concentration, the protein encoded by the gene can be determined to have an activity of providing a plant with resistance to a 4-HPPD inhibitor. […]

O=C1CCCC(=O)C1C(=O)c1ccc(C(F)(F)F)cc1[N+](=O)[O-] [NTBC, 2-(2-nitro-4-trifluoromethylbenzoyl)cyclohexane-1,3-dione] was tested, and the “growth state of the recombinants” value ([1]; agar medium treated with 1 μM NTBC) was “grew without being whitened”.

With CS(=O)(=O)c1ccc(C(=O)C2C(=O)CCCC2=O)c(Cl)c1COCC1CCCO1 (stereo not shown) [tefuryltrione] the “growth state of the recombinants” value ([1]; agar medium treated with 2.5 μM tefuryltrione) was “grew without being whitened”.

With CS(=O)(=O)c1ccc(C(=O)C2C(=O)CCCC2=O)c(Cl)c1COCC(F)(F)F [tembotrione] the “growth state of the recombinants” value ([1]; agar medium treated with 0.5 μM tembotrione) was “grew without being whitened”.

CS(=O)(=O)c1ccc(C(=O)C2C(=O)CCCC2=O)c([N+](=O)[O-])c1 [mesotrione] was tested, and the “growth state of the recombinants” value ([1]; agar medium treated with 1 μM mesotrione) was “grew without being whitened”.

CS(=O)(=O)c1ccc(C(=O)C2=C(Sc3ccccc3)C3CCC(C3)C2=O)c(Cl)c1 (stereo not shown) [BBC, benzobicyclon] was tested, and the BBC susceptibility (KHSL04) was “showed susceptibility”, the “growth state of the recombinants” value ([1]; agar medium treated with 2 μM BBC) was “grew without being whitened” and the “phenotype (BBC susceptibility)” value [2] was “showed BBC susceptibility”. For the same compound, the “whitening of leaf parts” value [3] was “whitened”, the “whitening of the plant” value ([4]; 0.12 μM BBC) was “not whitened” and the “whitening of the plant” value ([4]; agar medium 2 μM BBC) was “sufficient to whiten”. For the same compound, the “degree of BBC susceptibility” value [5] was “high BBC susceptibility”, the “growth state of the recombinants” value [6] was “grew without being whitened” and the “growth state of the recombinants” value [7] was “grew without being whitened”. The “growth state of the recombinants” value [8] was “grew without being whitened”, the “whitening of the plant” value [9] was “whitened” and the “whitening of the plant” value [10] was “whitened”.

— patent US20150047066A1, “PLANT HAVING INCREASED RESISTANCE OR SUSCEPTIBILITY TO 4-HPPD INHIBITOR” (TOYAMA PREFECTURE, priority 2010, published 2015)
